According to publication PMC6936217 (Science translational medicine, 2019):
Where two headings read alike, the source gives them in different places.

Experiments:
EBNA1 = EBNA1 (Epstein-Barr virus, UniProt P03211); assay: ALPHA proximity DNA binding assay
15N-labeled EBNA1 = 15N-labeled EBNA1 (Epstein-Barr virus, UniProt P03211); assay: HSQC NMR with 15N-labeled EBNA1; assay type: binding; conditions: 50 μM ligand
[1] = read-out: IC50, inhibition of EBNA1 DNA binding, ALPHA proximity assay

Chain of EBNA1 (P03211 459-607): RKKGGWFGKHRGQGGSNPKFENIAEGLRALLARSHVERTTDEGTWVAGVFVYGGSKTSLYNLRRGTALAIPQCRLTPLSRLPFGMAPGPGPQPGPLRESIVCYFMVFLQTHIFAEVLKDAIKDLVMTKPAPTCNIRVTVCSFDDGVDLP
Chain of 15N-labeled EBNA1 (P03211 459-607): as above

## O=C(O)c1cncc(C#Cc2ccccc2)c1 [VK-0044, 5-phenylacetylenyl nicotinic acid]
EBNA1
  IC50: 110 µM

## O=C(O)c1ccccc1-n1cccc1 [VK-0064, 2-pyrrolo-benzoic acid]
EBNA1; [1]
  IC50: 2 µM

## O=C(O)c1cccc(C#Cc2ccccc2)c1-n1cccc1 [VK-0497, 2-pyrrolo-3-phenylacetylenyl benzoic acid]
15N-labeled EBNA1
  binding to EBNA1 by chemical shift changes: direct binding
EBNA1; [1]
  IC50: 0.89 µM
